From US8063055B2, “Substituted pyridone compounds and methods of use” (Amgen Inc., priority 2007, dated 2011)
pIC50: −log10 of the molar value. Like-named read-outs stand apart in the source and are kept apart here.

Legend:
[1] = molecular target: T1, c-kit kinase enzyme (Homo sapiens, UniProt P10721); experiment: C-kit Homogeneous Time Resolved Fluorescent (HTRF) kinase assay; type: biochemical; conditions: c-kit catalytic domain, biotinylated Her-2 peptide substrate, ATP
T1 construct: (catalytic domain, N-terminal GST tagged, unphosphorylated)
T1 sequence (P10721 589-937 limits assumed): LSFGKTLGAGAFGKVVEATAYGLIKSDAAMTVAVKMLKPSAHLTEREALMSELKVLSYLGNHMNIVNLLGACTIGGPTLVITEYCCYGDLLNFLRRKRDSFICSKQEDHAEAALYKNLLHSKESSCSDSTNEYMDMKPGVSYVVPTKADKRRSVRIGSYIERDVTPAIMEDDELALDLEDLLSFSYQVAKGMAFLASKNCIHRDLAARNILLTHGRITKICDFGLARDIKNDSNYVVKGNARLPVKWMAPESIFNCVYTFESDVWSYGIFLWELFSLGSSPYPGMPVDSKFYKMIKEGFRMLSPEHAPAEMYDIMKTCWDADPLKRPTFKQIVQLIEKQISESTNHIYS

[2] = system: SCF-stimulated UT-7 cells; conditions: Homo sapiens
Text: SCF and GM-CSF Stimulated UT7 Proliferation/Survival Assay:
The purpose of this assay is to test the general anti-proliferative/cytotoxic effect of small molecule compounds on SCF or GM-CSF-stimulated UT-7 cells. Preventing SCF stimulated proliferation/survival is consistent with an on-mechanism effect whereas inhibition of GM-CSF driven proliferation/survival is indicative of off-target effects. UT-7 is a factor dependent human megakaryoblastic leukemia cell line that can be grown in either IL-3, GM-CSF, EPO or SCF (these cells have been confirmed to carry wild type c-kit receptor). Cells are maintained in growth media (IMDM, 10% HI-FBS, 1×PGS, 1 ng/mL GM-CSF). […] Small molecule compounds are first diluted in 100% DMSO, then diluted 1:4 in RT assay media. […] The treated cells are incubated in a 37° C. humidified incubator with 5% CO2 for 3 days. The amount of ATP is then measured as a surrogate marker for cell viability. […] The amount of SCF or GM-CSF stimulated viable cells in the presence of compound compared with in the presence of vehicle alone (HI control) is calculated using the formula: % control (POC)=(cpd−average LO)/(average HI−average LO)*100. Data (consisting of POC and inhibitor concentration in μM) is fitted to a 4-parameter equation (y=A+((B−A)/(1+((x/C)^D))), where A is the minimum y (POC) value, B is the maximum y (POC), C is the x (cpd concentration) at the point of inflection and D is the slope factor) using a Levenburg-Marquardt non-linear regression algorithm.

[3] = UT7, 72 h, read-out: UT7 Proliferation cell assay data
[4] = read-out: HTRF Fret enzyme assay data
[5] = UT7, read-out: average IC50 value in the SCF stimulated UT7 proliferation and survival assay

SMILES	pIC50 ([1]; HTRF Fret enzyme assay data)	pIC50 [2, 3]	pIC50 [1, 4]	pIC50 [2, 5]
Cc1ccn(-c2ccc(F)cc2)c(=O)c1-c1ccc2nc(N)ncc2c1 [Example 33, 3-(2-aminoquinazolin-6-yl)-1-(4-fluorophenyl)-4-methylpyridin-2(1H)-one]	7.20	6.97		
Cc1ccn(-c2ccc(N3CCOCC3)cc2)c(=O)c1-c1ccc2nc(N)ncc2c1 [Example 34, 3-(2-aminoquinazolin-6-yl)-4-methyl-1-(4-morpholinophenyl)pyridin-2(1H)-one]		7.14	7.89	
Cc1ccn(-c2ccc(CN3CCOCC3)cc2)c(=O)c1-c1ccc2nc(N)ncc2c1 [Example 35, 3-(2-aminoquinazolin-6-yl)-4-methyl-1-(4-(morpholinomethyl)phenyl)pyridin-2(1H)-one]	7.51	6.70		
Cc1ccn(-c2ccc(-n3cccn3)cc2)c(=O)c1-c1ccc2nc(N)ncc2c1 [Example 38, 1-(4-(1H-pyrazol-1-yl)phenyl)-3-(2-aminoquinazolin-6-yl)-4-methylpyridin-2(1H)-one]		7.74	8.00	
Cc1ccn(-c2ccc(F)c(F)c2)c(=O)c1-c1ccc2nc(N)ncc2c1 [Example 39, 3-(2-aminoquinazolin-6-yl)-1-(3,4-difluorophenyl)-4-methylpyridin-2(1H)-one]	7.32	7.20		
Cc1ccn(-c2ccc(Cl)c(Cl)c2)c(=O)c1-c1ccc2nc(N)ncc2c1 [Example 40, 3-(2-aminoquinazolin-6-yl)-1-(3,4-dichlorophenyl)-4-methylpyridin-2(1H)-one]	7.70	7.74		
Cc1ccc(-n2ccc(C)c(-c3ccc4nc(N)ncc4c3)c2=O)cc1Cl [Example 41, 3-(2-aminoquinazolin-6-yl)-1-(3-chloro-4-methylphenyl)-4-methylpyridin-2(1H)-one]	8.09	7.92		
Cc1cc(-n2ccc(C)c(-c3ccc4nc(N)ncc4c3)c2=O)ccc1F [Example 42, 3-(2-aminoquinazolin-6-yl)-1-(4-fluoro-3-methylphenyl)-4-methylpyridin-2(1H)-one]		7.74	7.85	
Cc1ccn(-c2ccc(F)c(C(F)(F)F)c2)c(=O)c1-c1ccc2nc(N)ncc2c1 [Example 43, 3-(2-aminoquinazolin-6-yl)-1-(4-fluoro-3-(trifluoromethyl)phenyl)-4-methylpyridin-2(1H)-one]	7.67	7.39		
Cc1ccn(-c2ccc(F)c(Cl)c2)c(=O)c1-c1ccc2nc(N)ncc2c1 [Example 45, 3-(2-aminoquinazolin-6-yl)-1-(3-chloro-4-fluorophenyl)-4-methylpyridin-2(1H)-one]	7.00	7.40		
Cc1ccn(-c2cc(Cl)cc(Cl)c2)c(=O)c1-c1ccc2nc(N)ncc2c1 [Example 46, 3-(2-aminoquinazolin-6-yl)-1-(3,5-dichlorophenyl)-4-methylpyridin-2(1H)-one]	7.36	7.46		
Cc1ccn(CCC2CCCC2)c(=O)c1-c1ccc2nc(N)ncc2c1 [Example 52, 3-(2-aminoquinazolin-6-yl)-1-(2-cyclopentylethyl)-4-methylpyridin-2(1H)-one]	9.09	7.62		≥ 6.00
CC(C)=CCn1ccc(C)c(-c2ccc3nc(N)ncc3c2)c1=O [Example 54, 3-(2-aminoquinazolin-6-yl)-4-methyl-1-(3-methylbut-2-enyl)pyridin-2(1H)-one]	7.62	7.92		≥ 6.00
Cc1ccn(CCC(C)(C)C)c(=O)c1-c1ccc2nc(N)ncc2c1 [Example 57, 3-(2-aminoquinazolin-6-yl)-1-(3,3-dimethylbutyl)-4-methylpyridin-2(1H)-one]	7.79	7.37		
CCC(C)CCn1ccc(C)c(-c2ccc3nc(N)ncc3c2)c1=O (stereo not shown) [Example 58, 3-(2-aminoquinazolin-6-yl)-4-methyl-1-(3-methylpentyl)pyridin-2(1H)-one]	8.60	8.05		
Cc1ccn(CCC2CC2)c(=O)c1-c1ccc2nc(N)ncc2c1 [Example 59, 3-(2-aminoquinazolin-6-yl)-1-(2-cyclopropylethyl)-4-methylpyridin-2(1H)-one]	7.10	7.55		
Cc1ccn(CCCC(C)C)c(=O)c1-c1ccc2nc(N)ncc2c1 [Example 61, 3-(2-aminoquinazolin-6-yl)-4-methyl-1-(4-methylpentyl)pyridin-2(1H)-one]	8.95	8.40		≥ 6.00
